≈ marks a conversion by molar mass, not a printed value. Where two headings read alike, the source gives them in different places.
Tests used:
[1] = Blood-brain barrier crossing and accumulation in cerebral spinal fluid (statement, no method given)
β2 adrenergic receptor = β2 adrenergic receptor (Homo sapiens, UniProt P07550); assay: Agonism of the β2 adrenergic receptor (statement, no method given)
[2] = Solubility testing in biorelevant media (SGF, FaSSIF, FeSSIF) and water, shaken at 37° C. for up to 24 hours; assay type: physicochemical; settings: for Solubility (mg/mL) 0.5 h / solubility / solubility at 0.5 h: 37° C.; for solubility / solubility at 0.5 h: 37 °C, thermodynamic from solid; for time until dissolved in each medium: shaking at 37° C., about 15 mg in 3 mL of each of the 4 media; for solubility at 0.5 h: read-out: Solubility (mg/mL) 0.5 h
Description: (§1) HPLC analysis was performed with an Agilent HPLC 1260 series instrument.
Compound 1 Form A, Compound 2 Form A and Compound 9 Form A were tested for stability in three biorelevant media and water at 37° C. for 0.5, 2 and 24 hours. About 15 mg of Compound 1 Form A, Compound 2 Form A and Compound 9 Form A were weighted into four separate vials each and to each set of vials was added 3 mL of one of the following biorelevant media: simulated gastric […] fluid (SGF), fasted state simulated intestinal fluid (FaSSIF), fed state simulated intestinal fluid (FeSSIF), and water. All samples were shaken at 200 rpm at 37° C. for up to 24 hours. […] Compound 9 Form A dissolved in each medium after about 15 minutes of shaking at 37° C. Compound 1 Form A dissolved in each medium over the course of about 2 hours of shaking at 37° C. […] The results of the solubility test are summarized below in Table 18: […]

[3] = Estimated solubility test: medium added stepwise at rt until the solid dissolved; assay type: physicochemical; settings: for solubility: thermodynamic from solid
Description: As all of the samples dissolved after about 2 hours, estimated solubility testing was conducted, wherein about 5 mg of Compound 1 Form A, Compound 2 Form A and Compound 9 Form A were weighed into four separate vials each and each media was added stepwise while stirring at rt until the solid dissolved.

[4] = Solid stability at 60° C. and 40° C./75%RH for 7 days (purity by HPLC, solid form); assay type: physicochemical; settings: for Purity @ 0 d (Area%): start of solid stability test; for Purity @ 0 d (Area%) / Purity @ 7 d (Area%) 40° C./75%RH / Purity @ 7 d (Area%) 60° C.: HPLC; for Solid form @ 7 d 40° C./75%RH / Purity @ 7 d (Area%) 40° C./75%RH: 7 d at 40° C./75%RH; for Solid form @ 7 d 60° C. / Purity @ 7 d (Area%) 60° C.: 7 d at 60° C.
Description: as §1
Solid stability of Compound 1 Form A, Compound 2 Form A and Compound 9 Form A were evaluated at 60° C. and 40° C./75%RH for 7 days. Purity was determined via HPLC. […] All tested compounds retained the same solid form after the 7-day experiment.

[5] = Dynamic vapor sorption (DVS) moisture sorption/desorption; assay type: physicochemical; settings: for XRPD pattern after DVS testing: after DVS full cycle
Description: Moisture sorption/desorption data was collected on a DVS Intrinsic (SMS, UK). The sample was placed into a tared sample chamber and automatically weighed. The sample was dried at 40° C. until the dm/dt was less than 0.002% and cooled to 25° C. The instrument parameters were set as detailed below. Step time (min): 60 min; Sample temperature: 25° C.; Cycle: Full cycle; Adsorption: 0, 10, 20, 30, 40, 50, 60, 70, 80, 90; Desorption: 80, 70, 60, 50, 40, 30, 20, 10, 0; Save Data Rate: 5 s; Total flow rate: 200 sccm; Post experiment total flow: 200 sccm.

[6] = SGF, FaSSIF, FeSSIF and water, SGF, FaSSIF, FeSSIF and water, about 15 mg in 3 mL, read-out: solubility in each medium
[7] = FaSSIF, fassif, FaSSIF, shaken 200 rpm, 2 and 24 h, read-out: Solubility (mg/mL) 2 and 24 h
[8] = FaSSIF, fassif, FaSSIF, shaken 200 rpm
[9] = FeSSIF, fessif, FeSSIF, shaken 200 rpm, 2 and 24 h, read-out: Solubility (mg/mL) 2 and 24 h
[10] = FeSSIF, fessif, FeSSIF, shaken 200 rpm
[11] = SGF, simulated gastric fluid, SGF, shaken 200 rpm, 2 and 24 h, read-out: Solubility (mg/mL) 2 and 24 h
[12] = SGF, simulated gastric fluid, SGF, shaken 200 rpm
[13] = water, water, Water, shaken 200 rpm, 2 and 24 h, read-out: Solubility (mg/mL) 2 and 24 h
[14] = water, water, Water, shaken 200 rpm

β2 adrenergic receptor, sequence (P07550 whole entry): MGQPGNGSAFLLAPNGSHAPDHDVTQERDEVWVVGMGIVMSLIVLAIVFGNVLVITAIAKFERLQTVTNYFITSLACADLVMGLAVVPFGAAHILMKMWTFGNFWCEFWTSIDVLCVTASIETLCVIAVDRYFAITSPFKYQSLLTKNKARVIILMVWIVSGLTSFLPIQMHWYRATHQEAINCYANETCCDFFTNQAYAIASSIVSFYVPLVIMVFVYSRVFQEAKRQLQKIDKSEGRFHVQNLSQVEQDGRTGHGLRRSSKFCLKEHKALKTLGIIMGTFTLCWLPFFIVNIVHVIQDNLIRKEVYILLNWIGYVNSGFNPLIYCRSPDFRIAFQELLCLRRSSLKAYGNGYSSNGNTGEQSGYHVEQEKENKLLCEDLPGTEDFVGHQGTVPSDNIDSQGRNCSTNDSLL

CC(C)(C)NC[C@H](O)c1cccc(C#N)n1 [Compound 1, (S)-6-(2-(tert-butylamino)-1-hydroxyethyl)picolinonitrile]
ability to cross the blood-brain barrier and accumulate in the cerebral spinal fluid [1]: unexpectedly high ability to cross the blood-brain barrier
activity at the β2 adrenergic receptor (β2 adrenergic receptor): low concentration partial agonist
Solubility (mg/mL) 0.5 h ([2]; FaSSIF, shaken 200 rpm, listed as Compound 1 Form A): 4.33 mg/mL (≈ 19.7 mM)
Solubility (mg/mL) 0.5 h ([2]; FeSSIF, shaken 200 rpm, listed as Compound 1 Form A): 4.41 mg/mL (≈ 20.1 mM)
Solubility (mg/mL) 0.5 h ([2]; SGF, shaken 200 rpm, listed as Compound 1 Form A): 4.76 mg/mL (≈ 21.7 mM)
solubility [2, 6]: > 5 mg/mL
Solubility (mg/mL) 0.5 h ([2]; Water, shaken 200 rpm, listed as Compound 1 Form A): 4.19 mg/mL (≈ 19.1 mM)
pH 24 h ([2]; pH of solubility sample in FaSSIF at 24 h (control 6.53), listed as Compound 1 Form A): 8.03
pH 24 h ([2]; pH of solubility sample in FeSSIF at 24 h (control 5.01), listed as Compound 1 Form A): 5.52
pH 24 h ([2]; pH of solubility sample in SGF at 24 h (control 1.19), listed as Compound 1 Form A): 1.20
pH 24 h ([2]; pH of solubility sample in water at 24 h (control 5.26), listed as Compound 1 Form A): 10.35
time until dissolved in each medium ([2]; listed as Compound 1 Form A): about 2 hours
Solubility (mg/mL) FaSSIF ([3]; FaSSIF, listed as Compound 1 Form A): ~6.3 mg/mL (≈ 28.7 mM)
Solubility (mg/mL) FeSSIF ([3]; FeSSIF, listed as Compound 1 Form A): ~9.1 mg/mL (≈ 41.5 mM)
Solubility (mg/mL) SGF ([3]; SGF, listed as Compound 1 Form A): ~12.7 mg/mL (≈ 57.9 mM)
Solubility (mg/mL) Water ([3]; water, listed as Compound 1 Form A): ~5.0 mg/mL (≈ 22.8 mM)
Purity @ 0 d (Area%) ([4]; listed as Compound 1 Form A): 96.09% Area%
decrease in purity ([4]; 7 d, under both sets of conditions (60° C. and 40° C./75%RH)): ~ 0.3%
Solid form @ 7 d 40° C./75%RH [4]: unchanged
Purity @ 7 d (Area%) 40° C./75%RH ([4]; listed as Compound 1 Form A): 95.78% Area%
Solid form @ 7 d 60° C. [4]: unchanged
Purity @ 7 d (Area%) 60° C. ([4]; listed as Compound 1 Form A): 95.76% Area%

CC(C)(C)NC[C@H](O)c1cccc(C#N)n1.Cl [Compound 2]
water uptake at 80%RH ([5]; DVS, 25° C.): 0.58%
XRPD pattern after DVS testing [5]: remained unchanged
solubility [2, 7]: > 5 mg/mL
solubility at 0.5 h [2, 8]: > 5 mg/mL
solubility [2, 9]: > 5 mg/mL
solubility at 0.5 h [2, 10]: > 5 mg/mL
solubility [2, 11]: > 5 mg/mL
solubility at 0.5 h [2, 12]: > 5 mg/mL
solubility [2, 6]: > 5 mg/mL
dissolution in each of the 4 media ([2]; at rt, about 15 mg in 3 mL): dissolved immediately
pH 24 h ([2]; pH of solubility sample in FaSSIF at 24 h (control 6.53)): 6.47
pH 24 h ([2]; pH of solubility sample in FeSSIF at 24 h (control 5.01)): 5.01
pH 24 h ([2]; pH of solubility sample in SGF at 24 h (control 1.19)): 1.11
pH 24 h ([2]; pH of solubility sample in water at 24 h (control 5.26)): 5.24
solubility [2, 13]: > 5 mg/mL
solubility at 0.5 h [2, 14]: > 5 mg/mL
solubility ([3]; FaSSIF, FaSSIF, read-out: Solubility (mg/mL) FaSSIF): > 100 mg/mL
solubility ([3]; FeSSIF, FeSSIF, read-out: Solubility (mg/mL) FeSSIF): > 100 mg/mL
solubility ([3]; SGF, simulated gastric fluid, SGF, read-out: Solubility (mg/mL) SGF): > 101 mg/mL
solubility ([3]; water, water, read-out: Solubility (mg/mL) Water): > 102 mg/mL
Purity @ 0 d (Area%) [4]: 99.27% Area%
Solid form @ 7 d 40° C./75%RH [4]: unchanged
Purity @ 7 d (Area%) 40° C./75%RH [4]: 99.27% Area%
Solid form @ 7 d 60° C. [4]: unchanged
Purity @ 7 d (Area%) 60° C. [4]: 99.25% Area%

CC(C)(C)NC[C@H](O)c1cccc(C#N)n1.Cc1ccc(S(=O)(=O)O)cc1 [Compound 5]
water uptake at 80%RH ([5]; DVS, 25° C.): 1.25%
water uptake at 90%RH ([5]; DVS, 25° C., 90%RH): 2.77%
XRPD pattern after DVS testing [5]: remained unchanged

CC(C)(C)NC[C@H](O)c1cccc(C#N)n1 [Compound 9]
water uptake at 80%RH ([5]; DVS, 25° C.): 1.05%
XRPD pattern after DVS testing [5]: remained unchanged
solubility [2, 7]: > 5 mg/mL
solubility at 0.5 h [2, 8]: > 5 mg/mL
solubility [2, 9]: > 5 mg/mL
solubility at 0.5 h [2, 10]: > 5 mg/mL
solubility [2, 11]: > 5 mg/mL
solubility at 0.5 h [2, 12]: > 5 mg/mL
pH 24 h ([2]; pH of solubility sample in FaSSIF at 24 h (control 6.53), listed as Compound 9 Form A): 6.51
pH 24 h ([2]; pH of solubility sample in FeSSIF at 24 h (control 5.01), listed as Compound 9 Form A): 5.01
pH 24 h ([2]; pH of solubility sample in SGF at 24 h (control 1.19), listed as Compound 9 Form A): 1.18
pH 24 h ([2]; pH of solubility sample in water at 24 h (control 5.26), listed as Compound 9 Form A): 5.68
time until dissolved in each medium ([2]; listed as Compound 9 Form A): About 15 minutes
solubility [2, 13]: > 5 mg/mL
solubility at 0.5 h [2, 14]: > 5 mg/mL
Solubility (mg/mL) FaSSIF ([3]; FaSSIF, listed as Compound 9 Form A): >71.4 mg/mL
Solubility (mg/mL) FeSSIF ([3]; FeSSIF, listed as Compound 9 Form A): >101.4 mg/mL
Solubility (mg/mL) SGF ([3]; SGF, listed as Compound 9 Form A): >71.4 mg/mL
Solubility (mg/mL) Water ([3]; water, listed as Compound 9 Form A): >71.3 mg/mL
Purity @ 0 d (Area%) ([4]; listed as Compound 9 Form A): 98.62% Area%
Purity @ 7 d (Area%) 40° C./75%RH ([4]; listed as Compound 9 Form A): 98.49% Area%
Purity @ 7 d (Area%) 60° C. ([4]; listed as Compound 9 Form A): 98.62% Area%

— patent US20230219892A1, “FORMS AND COMPOSITIONS OF A BETA ADRENERGIC AGONIST” (Curasen Therapeutics, Inc., priority 2020, published 2023)
